From ChEMBL document CHEMBL1201862, “PubChem BioAssay data set” (2004)
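Test compounds were applied to cells in 96-well plates for 48 hours at 5 doses. GI50: concentration for 50% inhibition of growth.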 Calls of active or inactive are those of the source. Cut-off read from the data, not from the text of the source: active = GI50 up to about 1.1 µM and inactive = higher.

What was measured:
Experiment in all cases: DTP human tumour cell line panel, 48 h
U-251 = test system: U-251
PC-3 = test system: PC-3
ACHN = test system: ACHN
LOX IMVI = test system: LOX IMVI
OVCAR-3 = test system: OVCAR-3
A498 = test system: A498
T47D = test system: T47D
SF-268 = test system: SF-268
UACC-62 = test system: UACC-62
HCC 2998 = test system: HCC 2998
KM12 = test system: KM12
SK-MEL-2 = test system: SK-MEL-2
HCT-116 = test system: HCT-116
SN12C = test system: SN12C
COLO 205 = test system: COLO 205
DU-145 = test system: DU-145
NCI-H23 = test system: NCI-H23
786-0 = test system: 786-0
UO-31 = test system: UO-31
SF-295 = test system: SF-295

SMILES | GI50 (U-251) | GI50 (PC-3) | GI50 (ACHN) | GI50 (LOX IMVI) | GI50 (OVCAR-3) | GI50 (A498) | GI50 (T47D) | GI50 (SF-268) | GI50 (UACC-62) | GI50 (HCC 2998) | GI50 (KM12) | GI50 (SK-MEL-2) | GI50 (HCT-116) | GI50 (SN12C) | GI50 (COLO 205) | GI50 (DU-145) | GI50 (NCI-H23) | GI50 (786-0) | GI50 (UO-31) | GI50 (SF-295)
Cc1ccc2nc(N/N=C/c3cccc(C)n3)cc(C)c2c1 | 16.9 µM (inactive) | 17.7 µM (inactive) | 15.7 µM (inactive) | 15.1 µM (inactive) | 14 µM (inactive) | 17.9 µM (inactive) | 16 µM (inactive) | 17.2 µM (inactive) | 15.2 µM (inactive) | 12.6 µM (inactive) | 12.7 µM (inactive) | 18.8 µM (inactive) | 14.7 µM (inactive) | 17.2 µM (inactive) | 15 µM (inactive) | 17.3 µM (inactive) | 18.8 µM (inactive) | 16.2 µM (inactive) | 19.7 µM (inactive) | 15.4 µM (inactive)
c1ccc(-c2nnn(CCN3CCCCC3)n2)cc1 | > 100 µM (inactive) | > 100 µM (inactive) | > 100 µM (inactive) | > 100 µM (inactive) | > 100 µM (inactive) | > 100 µM (inactive) | > 100 µM (inactive) | > 100 µM (inactive) | > 100 µM (inactive) | > 100 µM (inactive) | > 100 µM (inactive) | > 100 µM (inactive) | > 100 µM (inactive) | > 100 µM (inactive) | > 100 µM (inactive) | > 100 µM (inactive) | > 100 µM (inactive) | > 100 µM (inactive) | > 100 µM (inactive) | > 100 µM (inactive)
C=CCN(c1cc(OC)c2c(c1[N+](=O)[O-])C(C)(SC)C(=O)N2)S(C)(=O)=O (configuration not stated) | > 100 µM (inactive) | > 100 µM (inactive) | > 100 µM (inactive) | > 100 µM (inactive) | – | > 100 µM (inactive) | > 100 µM (inactive) | 83.6 µM (inactive) | 71.4 µM (inactive) | 65.5 µM (inactive) | > 100 µM (inactive) | > 100 µM (inactive) | > 100 µM (inactive) | > 100 µM (inactive) | > 100 µM (inactive) | > 100 µM (inactive) | > 100 µM (inactive) | 87.7 µM (inactive) | > 100 µM (inactive) | 77.1 µM (inactive)
COc1ccc(/C=C(/c2ccc(OC)cc2)c2c(Cl)cc(Cl)c(/C(=C\c3ccc(OC)cc3)c3ccc(OC)cc3)c2/N=N/c2ccccc2)cc1 | 66.4 µM (inactive) | > 100 µM (inactive) | 72.4 µM (inactive) | > 100 µM (inactive) | > 100 µM (inactive) | 98.2 µM (inactive) | > 100 µM (inactive) | > 100 µM (inactive) | > 100 µM (inactive) | > 100 µM (inactive) | > 100 µM (inactive) | > 100 µM (inactive) | > 100 µM (inactive) | > 100 µM (inactive) | > 100 µM (inactive) | > 100 µM (inactive) | > 100 µM (inactive) | > 100 µM (inactive) | > 100 µM (inactive) | > 100 µM (inactive)
CC1(C)C2CCC(=O)C1CC2 (configuration not stated) | > 100 µM (inactive) | > 100 µM (inactive) | > 100 µM (inactive) | > 100 µM (inactive) | > 100 µM (inactive) | > 100 µM (inactive) | > 100 µM (inactive) | > 100 µM (inactive) | > 100 µM (inactive) | > 100 µM (inactive) | > 100 µM (inactive) | > 100 µM (inactive) | > 100 µM (inactive) | > 100 µM (inactive) | > 100 µM (inactive) | > 100 µM (inactive) | > 100 µM (inactive) | > 100 µM (inactive) | > 100 µM (inactive) | > 100 µM (inactive)
Cc1ccc(/C=C2\CCS(=O)(=O)c3ccccc3C2=O)cc1 | 14 µM (inactive) | 20.4 µM (inactive) | 15.2 µM (inactive) | 15.2 µM (inactive) | 17.2 µM (inactive) | 21.2 µM (inactive) | 16.1 µM (inactive) | 18.3 µM (inactive) | 17.3 µM (inactive) | 14.7 µM (inactive) | 15.5 µM (inactive) | 21.9 µM (inactive) | 13.1 µM (inactive) | 19.1 µM (inactive) | 15.2 µM (inactive) | 14.2 µM (inactive) | 15.5 µM (inactive) | 16.3 µM (inactive) | 12.6 µM (inactive) | 19.2 µM (inactive)
Nc1ncnc2c1ncn2C(=O)NC12CC3CC(CC(C3)C1)C2 | > 100 µM (inactive) | > 100 µM (inactive) | > 100 µM (inactive) | > 100 µM (inactive) | > 100 µM (inactive) | > 100 µM (inactive) | 4.97 µM (inactive) | > 100 µM (inactive) | > 100 µM (inactive) | > 100 µM (inactive) | > 100 µM (inactive) | > 100 µM (inactive) | > 100 µM (inactive) | > 100 µM (inactive) | > 100 µM (inactive) | > 100 µM (inactive) | > 100 µM (inactive) | > 100 µM (inactive) | > 100 µM (inactive) | > 100 µM (inactive)
CCOC(=O)c1cccc(NC(=O)CI)c1 | 0.313 µM (active) | 1.14 µM (inactive) | 0.682 µM (active) | 0.123 µM (active) | 0.391 µM (active) | 2.07 µM (inactive) | 1.39 µM (inactive) | 0.67 µM (active) | 0.575 µM (active) | 2.24 µM (inactive) | 1.67 µM (inactive) | 0.871 µM (active) | 0.301 µM (active) | 0.29 µM (active) | 0.531 µM (active) | 1.76 µM (inactive) | 0.336 µM (active) | 0.169 µM (active) | 0.189 µM (active) | 2.47 µM (inactive)
CCc1c(N=[N+]=[N-])c2ccccc2oc1=O | > 100 µM (inactive) | > 100 µM (inactive) | > 100 µM (inactive) | > 100 µM (inactive) | > 100 µM (inactive) | > 100 µM (inactive) | > 100 µM (inactive) | > 100 µM (inactive) | > 100 µM (inactive) | > 100 µM (inactive) | > 100 µM (inactive) | – | > 100 µM (inactive) | > 100 µM (inactive) | > 100 µM (inactive) | > 100 µM (inactive) | > 100 µM (inactive) | > 100 µM (inactive) | > 100 µM (inactive) | > 100 µM (inactive)
CSc1c(C#N)c(N)n(-c2ccc(Cl)cc2)c(=O)c1C#N | > 100 µM (inactive) | > 100 µM (inactive) | – | > 100 µM (inactive) | > 100 µM (inactive) | > 100 µM (inactive) | > 100 µM (inactive) | > 100 µM (inactive) | > 100 µM (inactive) | > 100 µM (inactive) | > 100 µM (inactive) | > 100 µM (inactive) | > 100 µM (inactive) | > 100 µM (inactive) | > 100 µM (inactive) | > 100 µM (inactive) | > 100 µM (inactive) | > 100 µM (inactive) | > 100 µM (inactive) | –
O=P(Oc1ccccc1)(Oc1ccccc1)Oc1c[nH]c2ccccc12 | 12.3 µM (inactive) | 0.847 µM (active) | – | 14.6 µM (inactive) | 14.5 µM (inactive) | 14.1 µM (inactive) | 8.91 µM (inactive) | 11.1 µM (inactive) | 8.97 µM (inactive) | 1.95 µM (inactive) | 19.4 µM (inactive) | 5.47 µM (inactive) | 15.2 µM (inactive) | 11.6 µM (inactive) | 2.37 µM (inactive) | 36.6 µM (inactive) | 10.1 µM (inactive) | 15.5 µM (inactive) | 5.33 µM (inactive) | 3.28 µM (inactive)
CC12CC(c3ccccc3O1)C(C(=O)Nc1cccc(F)c1)C(=O)N2 (configuration not stated) | > 100 µM (inactive) | 49.1 µM (inactive) | > 100 µM (inactive) | 49 µM (inactive) | 92 µM (inactive) | > 100 µM (inactive) | 25.2 µM (inactive) | > 100 µM (inactive) | 52.6 µM (inactive) | > 100 µM (inactive) | 49.7 µM (inactive) | > 100 µM (inactive) | 91.2 µM (inactive) | – | 62.7 µM (inactive) | > 100 µM (inactive) | 17.3 µM (inactive) | > 100 µM (inactive) | 7.78 µM (inactive) | 64 µM (inactive)
C=CC(CCc1ccc(C(=O)OCC)cc1)c1c(N)nc(N)[nH]c1=O (configuration not stated) | > 100 µM (inactive) | 52.6 µM (inactive) | – | 45.3 µM (inactive) | 72.1 µM (inactive) | 21.2 µM (inactive) | 72.4 µM (inactive) | > 100 µM (inactive) | > 100 µM (inactive) | > 100 µM (inactive) | > 100 µM (inactive) | > 100 µM (inactive) | > 100 µM (inactive) | > 100 µM (inactive) | > 100 µM (inactive) | > 100 µM (inactive) | 91.8 µM (inactive) | > 100 µM (inactive) | 43.7 µM (inactive) | 57.8 µM (inactive)
Clc1n[nH]c2ccccc12 | > 100 µM (inactive) | > 100 µM (inactive) | > 100 µM (inactive) | – | > 100 µM (inactive) | > 100 µM (inactive) | > 100 µM (inactive) | > 100 µM (inactive) | > 100 µM (inactive) | > 100 µM (inactive) | > 100 µM (inactive) | > 100 µM (inactive) | > 100 µM (inactive) | > 100 µM (inactive) | > 100 µM (inactive) | > 100 µM (inactive) | > 100 µM (inactive) | > 100 µM (inactive) | > 100 µM (inactive) | > 100 µM (inactive)
